According to PubChem BioAssay (NCI):
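1) Cells in 96-well plates. 2) Compound, 48 h, 5 concentrations. 3) Linear interpolation between surrounding doses. 4) Unreached endpoint = highest concentration. GI50 = concentration required for 50% inhibition of growth. TGI is the concentration that stops growth completely.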

How the values were obtained:
Test in all cases: NCI tumour cell line growth inhibition, 48 h
TK-10 renal = system: TK-10 renal
NCI-H460 lung = system: NCI-H460 lung
LOX IMVI melanoma = system: LOX IMVI melanoma
RPMI-8226 leukemia = system: RPMI-8226 leukemia
A549 NSCLC = system: A549 NSCLC
MDA-N = system: MDA-N
SW-620 colon = system: SW-620 colon
MDA-MB-435 = system: MDA-MB-435
NCI-H23 lung = system: NCI-H23 lung
UO-31 renal = system: UO-31 renal
A498 renal = system: A498 renal
NCI/ADR-RES ovarian = system: NCI/ADR-RES ovarian
HS 578T breast = system: HS 578T breast
HL-60(TB) leukemia = system: HL-60(TB) leukemia
SN12C renal = system: SN12C renal
HCT-116 colon = system: HCT-116 colon
MOLT-4 leukemia = system: MOLT-4 leukemia
MCF7 breast = system: MCF7 breast
SNB-75 CNS = system: SNB-75 CNS

Compound	TGI (TK-10 renal)	TGI (NCI-H460 lung)	TGI (LOX IMVI melanoma)	TGI (RPMI-8226 leukemia)	TGI (A549 NSCLC)	TGI (MDA-N)	TGI (SW-620 colon)	TGI (MDA-MB-435)	TGI (NCI-H23 lung)	TGI (UO-31 renal)	TGI (A498 renal)	TGI (NCI/ADR-RES ovarian)	TGI (HS 578T breast)	TGI (HL-60(TB) leukemia)	TGI (SN12C renal)	TGI (HCT-116 colon)	TGI (MOLT-4 leukemia)	TGI (MCF7 breast)	TGI (SNB-75 CNS)	GI50 (HCT-116 colon)
CCC1=NC(N/N=C/c2ccco2)=N/C1=C\c1ccco1	> 100 µM	> 100 µM	> 100 µM	> 100 µM	> 100 µM	> 100 µM	> 100 µM	> 100 µM	> 100 µM	> 100 µM	> 100 µM	> 100 µM	> 100 µM	> 100 µM	> 100 µM	> 100 µM	> 100 µM			
CCOC(=O)COc1cc(-c2ccccc2)nc2cc(F)ccc12	> 100 µM		> 100 µM	> 100 µM	> 100 µM	> 100 µM	> 100 µM	> 100 µM	> 100 µM		> 100 µM	> 100 µM			> 100 µM	> 100 µM	> 100 µM	> 100 µM	> 100 µM	
FC(F)(F)c1nc2c(ccc3[nH]c4c(-c5ccccc5)nccc4c32)[nH]1	> 100 µM	> 100 µM	> 75.9 µM	> 64.7 µM	> 100 µM		> 100 µM		> 100 µM	> 100 µM	> 100 µM			> 100 µM	> 100 µM	> 100 µM	> 100 µM		> 100 µM	
CC1(C)OC2C(O1)[C@H]1OC(C(Cl)(Cl)Cl)=N[C@H]1C(I)[C@H]2N1C(=O)c2ccccc2C1=O (stereo not given in full)		> 100 µM	> 100 µM	> 100 µM	97.5 µM		> 100 µM		> 100 µM		> 100 µM			44.4 µM	> 100 µM	> 100 µM	58.3 µM		> 100 µM	
COc1cccc(C=C(C#N)C#N)c1OC	> 100 µM	> 100 µM		> 100 µM	> 100 µM	> 100 µM	> 100 µM		> 100 µM	> 100 µM		> 100 µM		> 100 µM	> 100 µM	> 100 µM	> 100 µM	> 100 µM	> 100 µM	
Cc1ccc(C2SCc3nc4ccccc4n32)cc1 (stereo not given)	25.1 µM	> 100 µM	40.6 µM	38.8 µM	> 100 µM		> 100 µM	5.01 µM	24.3 µM	22.6 µM	9.04 µM	12.5 µM	7.17 µM	5.94 µM	38.6 µM	14 µM	15.3 µM	20.3 µM	0.0817 µM	
COc1ccc(C2S/C(=C\c3ccc([N+](=O)[O-])cc3)C(=O)N2NC(=O)Cc2ccccc2)cc1 (stereo not given)	> 100 µM	> 100 µM	> 100 µM	> 100 µM	> 100 µM		> 100 µM		> 100 µM	> 100 µM	> 100 µM			> 100 µM	> 100 µM	> 100 µM	> 100 µM		> 100 µM	
CN(C)c1cccc2c(S(=O)(=O)NCCCNCCN)cccc12		> 100 µM	> 100 µM		> 100 µM	69.6 µM	> 100 µM	65.8 µM	> 100 µM	> 100 µM	91 µM	> 100 µM	76.4 µM	43.8 µM	> 100 µM	> 100 µM	41.1 µM		68.6 µM	
CCOC(=O)/C=C(\C(=O)OCC)n1cc(C)c(=O)n(Cc2cn(COCCOC(C)=O)nn2)c1=O	15.9 µM	30.2 µM	35.8 µM	18.9 µM	56.8 µM	50.8 µM	> 100 µM	28.2 µM	29.8 µM	26.9 µM		67.4 µM	46.1 µM		63.3 µM	80.4 µM	22 µM	22 µM	36 µM	
CN(C)CCSC(=Nc1ccccc1)n1cccc1	> 100 µM	> 100 µM	> 100 µM	> 100 µM	> 100 µM		> 100 µM		> 100 µM	> 100 µM				> 100 µM	> 100 µM	> 100 µM	> 100 µM		96.4 µM	
CN1C(CC(O)c2ccccc2)CCCC1CC(O)(c1ccccc1)c1ccccc1 (stereo not given)	38.8 µM		41.5 µM	41.1 µM	50 µM	33.5 µM	39 µM		35.8 µM	20.8 µM		33.5 µM		41.8 µM	32.3 µM	29.1 µM	54.9 µM	43.4 µM	44.8 µM	
COc1ccc(/C=N/NC(=O)CSc2nc(-c3ccccc3)c(-c3ccccc3)[nH]2)cc1OC	> 100 µM	91.6 µM	44.8 µM	51.8 µM	> 100 µM		> 100 µM		76.7 µM	69.7 µM	70 µM			42.3 µM	94.4 µM	87.2 µM	37.6 µM		77 µM	
N#CCc1nc(-c2cc3ccc(O)cc3oc2=O)cs1	> 100 µM	> 100 µM	> 100 µM	81.2 µM	> 100 µM	> 100 µM	> 100 µM	> 100 µM		> 100 µM		> 100 µM	> 100 µM	> 100 µM	> 100 µM	> 100 µM	> 100 µM	> 100 µM	> 100 µM	
COc1ccc(-n2nnc3c(C#N)c(C)c(-c4ccccc4)n3c2=O)cc1	> 100 µM	> 39.3 µM	> 100 µM	> 100 µM	> 38.8 µM		> 100 µM		> 100 µM	> 100 µM	> 100 µM	21.1 µM	> 100 µM		> 63.7 µM	2.65 µM	> 58.1 µM	> 100 µM	> 29.2 µM	
COC(=O)[C@H]1C2CC[C@@H]3C45C[C@@H](c6ccoc6)O[C@@H]4O[C@@H](O2)C31CCC5C (stereo not given in full)	> 100 µM	> 100 µM	> 100 µM	> 100 µM	> 100 µM		> 100 µM		> 100 µM	> 100 µM	> 100 µM			> 100 µM	> 100 µM	> 100 µM	> 100 µM			
CN(C)c1ccc(/C=C2\C[C@H]3[C@@H]4CC=C5C[C@@H](O)CC[C@]5(C)[C@H]4CC[C@]3(C)[C@H]2O)cc1	33.7 µM	28.9 µM	27.1 µM	> 100 µM	38.6 µM	56.9 µM	67.3 µM		35.6 µM	36.9 µM	31.5 µM	43.7 µM	50.8 µM	> 100 µM	40 µM	28.1 µM	> 100 µM	34.4 µM	> 100 µM	
CC(=O)O[C@H]1C(=O)[C@@]2(C)[C@H]([C@H](OC(=O)c3ccccc3)[C@]3(O)C[C@H](OC(=O)[C@H](O)[C@@H](NC(=O)C(C)(O)C(C)O)c4ccccc4)C(C)=C1C3(C)C)[C@]1(OC(C)=O)CO[C@@H]1C[C@@H]2O (stereo not given in full)	> 50 µM	> 50 µM	> 50 µM	> 16.6 µM	> 50 µM	0.0744 µM	> 50 µM	0.169 µM	> 50 µM	> 50 µM	> 50 µM	> 50 µM	0.737 µM	0.298 µM	> 50 µM		> 50 µM		0.398 µM	
COc1cc(CO)cc2c1[nH]c1ccccc12	> 25 µM	> 25 µM	> 25 µM	> 25 µM	> 25 µM		> 25 µM			> 25 µM				> 25 µM	> 25 µM	> 25 µM	> 25 µM			
Cc1ccc([N+](=O)[O-])cc1NC(=O)/C(CC(=O)c1sc(C(N)=S)nc1C)=N\N	> 100 µM	> 100 µM	> 100 µM	> 100 µM	> 100 µM		> 100 µM		83.8 µM	> 100 µM	> 100 µM			> 100 µM		> 100 µM	> 100 µM		> 100 µM	
c1ccc(C[N+]23C(CC[C@H]2c2ccccc2)CC[C@H]3c2ccccc2)cc1 (stereo not given in full)	> 100 µM		> 100 µM	26.4 µM	> 100 µM	98.9 µM	> 100 µM	54.8 µM		> 100 µM	> 100 µM		> 100 µM	57.4 µM	> 100 µM	> 100 µM	> 100 µM	> 100 µM	75 µM	
O=S(=O)(N1CCCCN(S(=O)(=O)C(F)(F)F)CCCN(S(=O)(=O)C(F)(F)F)CCCCN(S(=O)(=O)C(F)(F)F)CCCN(S(=O)(=O)C(F)(F)F)CCCCN(S(=O)(=O)C(F)(F)F)CCCN(S(=O)(=O)C(F)(F)F)CCCCN(S(=O)(=O)C(F)(F)F)CCC1)C(F)(F)F	> 31.6 µM	> 31.6 µM	> 31.6 µM	> 100 µM	> 31.6 µM	> 31.6 µM	> 31.6 µM	> 31.6 µM	> 31.6 µM	> 31.6 µM	> 31.6 µM	> 31.6 µM	> 31.6 µM	> 31.6 µM	> 31.6 µM	> 31.6 µM	> 31.6 µM		> 31.6 µM	
CCOC(=O)c1nc2ccc(C(F)(F)F)cc2nc1NCc1ccc(F)cc1	> 100 µM	75.4 µM	> 100 µM	> 100 µM	> 100 µM	> 100 µM	> 100 µM	> 100 µM	> 100 µM	> 100 µM		> 100 µM	86.5 µM	> 100 µM	> 100 µM	> 100 µM	> 100 µM	> 100 µM	> 100 µM	
C[C@@H]1C[C@@H]2C(=O)N(c3ccccc3)C(=O)[C@@H]2c2[nH]c3ccc(Br)cc3c21	> 100 µM	> 100 µM	> 100 µM		90.1 µM		> 100 µM		> 100 µM	> 100 µM	> 100 µM			> 100 µM	> 100 µM	> 100 µM	> 100 µM		41.9 µM	
N#CC(C(=S)Nc1ccccc1)=C1Nc2ccccc2N1	> 10 µM	> 10 µM	> 10 µM	> 10 µM	> 10 µM		> 10 µM		> 10 µM	> 10 µM	> 10 µM			> 10 µM	> 10 µM	> 10 µM	> 10 µM		> 10 µM	
COc1cc(S(=O)(=O)Nc2ccc(-c3csc(/N=C\c4cccc(Oc5ccccc5)c4)n3)cc2)ccc1Cl			39 µM	75.6 µM	> 100 µM		> 100 µM	> 100 µM	> 100 µM	> 100 µM		> 100 µM	> 100 µM	57.6 µM	96.7 µM	92.6 µM	> 100 µM	21.1 µM	80.1 µM	
NC(=S)N/N=C(/CCN1CCCC1)CC(C1=C(O)C2=CCCCC2OC1=O)c1ccccc1 (stereo not given)	> 100 µM	> 100 µM	> 100 µM	> 100 µM	> 100 µM		> 100 µM		> 100 µM	> 100 µM	> 100 µM			> 100 µM	> 100 µM	> 100 µM			> 100 µM	
COc1ccc([C@H]2[C@@H]3CCc4ccccc4C3=NN2C(N)=S)cc1OC	> 100 µM	> 100 µM	> 100 µM	> 100 µM	> 100 µM		> 100 µM		> 100 µM	> 100 µM	> 100 µM			54.8 µM	> 100 µM	> 100 µM	> 100 µM			
CCOC(=O)CCCOc1cc(-c2ccccc2F)nc2cc3c(cc12)OCO3	> 100 µM		> 100 µM	> 100 µM	> 100 µM	> 100 µM	> 100 µM	> 100 µM	> 100 µM			> 100 µM			> 100 µM	> 100 µM	98 µM	> 100 µM	> 100 µM	> 100 µM
